Test results as given in patent US8455666B1, “Vegetable oil esterified lipoic acid” (The United States of America, as represented by the …, priority 2011, dated 2013).

Tests used:
[1] = Vesicle leakage (calcein-cobalt) assay; settings: 37° C.
Method: Lipid Preparation and Formation of Unilamellar Phospholipid Vesicles. Lipid mixtures and vesicles were prepared as described previously (Laszlo et al. 2010. ibid). Lipids were prepared from appropriate amounts of DOPC in chloroform and LDOG-SS- or LDOG-SH (at 1- or 5-mol % of total lipids) in ethanol added to clean amber vials and then gently mixed. Solvents were removed under a stream of argon and then vacuum. The dried lipids were rehydrated in the appropriate buffer and mixed periodically to form multilamellar phospholipid vesicles. The vesicles were subjected to freeze-thaw cycles and then extrusion to form unilamellar vesicles (approx. 125 nm in diameter). Vesicles were covered with argon, protected from light and stored at 4° C. until used. DOPC vesicles incorporating 1- or 5-mol % ALA or DHLA were similarly produced.
Vesicle Leakage (Calcein-Cobalt). Vesicles with and without LDOG were evaluated for membrane integrity using a leakage assay described previously (Evans. Room-temperature ionic liquid cations act as short-chain surfactants and disintegrate a phospholipid bilayer. Colloid. Surface. A 2006, 274:11-17; and Laszlo et al. 2010. ibid). Briefly, the leakage assay was designed such that the low fluorescent signal of the entrapped calcein-cobalt complex increased as vesicles leaked their contents and cobalt was stripped from calcein by external EDTA. Vesicle leakage was monitored with a fluorometer. Samples were continuously stirred in 1-cm path length quartz cuvettes 37° C., with measurements taken for 30 min at 5-s intervals. Experiments were conducted in triplicate. Leakage percentage (L) was determined from the intensity of the fluorescent signal, 100×(Ft−Fo)/(Fmax−Fo), where Ft was the fluorescent signal over time, Fo was the extrapolated initial signal at time zero, and Fmax was the fluorescent signal at the end of the experiment after rupture by addition of Triton X-100 solution. The apparent rate constant k (ms^−1) and maximum extent of vesicle leakage (L∞), prior to vesicle rupture, were obtained by fitting to the equation: Lt=L∞(1−exp(−kt)).

[2] = Lipid peroxidation inhibition capacity assay (AAPH initiator, C11-Bodipy reporter); format: biochemical; settings: for antioxidant capacity compared with Trolox at the same concentration / oxidation protection of DOPC vesicles (C11-Bodipy fluorescence): in words; for oxidation protection of DOPC vesicles (C11-Bodipy fluorescence): AAPH
Method: Lipid Oxidation Inhibition. Lipid oxidation inhibition by LDOG was measured by the lipid peroxidation inhibition capacity assay, which employs AAPH as a free-radical initiator and the lipidic reporter molecule C11-Bodipy (Zhang et al., Lipid peroxidation inhibition capacity assay for antioxidants based on liposomal membranes. Mol. Nutr. Food Res. 2006, 50:714-724). C11-Bodipy fluoresces at 595 nm until it is oxidized, at which point its fluorescence shifts to ˜520 nm (Drummen et al., C11-bodipy581/591, an oxidation-sensitive fluorescent lipid peroxidation probe: (micro)spectroscopic characterization and validation of methodology. Free Radical Biol. Med. 2002, 33:473-490). Conditions for the assay using modified glycerides have been detailed previously (Laszlo et al. 2010. ibid). DOPC and C11-Bodipy were combined in a vial, dried to a film, and then rehydrated in 20 mM Tris-HCl, pH 7.4. When included, ALA, DHLA, LDOG-SS-, or LDOG-SH (at 1- or 5-mol % of total lipids) in ethanol were added prior to formation of vesicles. Unilamellar vesicles were prepared from rehydrated lipids as described above. Samples were diluted to a final concentration of 2.5 mM DOPC (2.4 μM C11-Bodipy) and allowed to equilibrate to 37° C. for 15 min prior to the introduction of AAPH. From the time of AAPH addition (40 mM final concentration), fluorescence intensity (excitation at 540 nm, emission at 595 nm) was measured every minute for 180 min. Experiments were conducted in triplicate at least. The relative fluorescence intensity was calculated by dividing the reading at each minute by the initial fluorescence at the beginning of the experiment (Ft/Fo). Background subtraction was accomplished using the appropriate vesicles without C11-Bodipy.
The water-soluble antioxidant Trolox was used for comparison. Trolox was combined with DOPC and C11-Bodipy, dried, and then rehydrated as described above. A final Trolox concentration range of 10 to 125 μM was employed. The peroxyl radical scavenging capacity of the test antioxidant relative to Trolox (i.e., the relative antioxidation activity) was calculated using the following equation
[formula] where AUCSample is the area under the fluorescence curve (AUC) for vesicles containing antioxidant, AUCTrolox is the area under the curve for vesicles containing 50 μM Trolox (thereby arbitrarily assigned a relative antioxidation activity value of 1.0), AUC0 is the area under the curve for vesicles containing only C11-Bodipy, and molSample is the molar concentration of the antioxidant (Naguib, A fluorometric method for measurement of peroxyl radical scavenging activities of lipophilic antioxidants. Anal. Biochem. 1998, 265:290-298). The AUC was calculated from the average of three different methods, those described by Cao and coworkers (Cao et al., Oxygen-radical absorbance capacity assay for antioxidants. Free Radical Biol. Med. 1993, 14:303-311), Naguib (Naguib, Antioxidant activities of astaxanthin and related carotenoids. J. Agric. Food. Chem. 2000, 48:1150-1154), and Zhang and coworkers (Zhang et al. 2006. ibid).

[3] = earlier study (Laszlo et al. 2010); cited from earlier work
[4] = antioxidant amount 1 mol % in DOPC vesicles
[5] = antioxidant amount 5 mol % in DOPC vesicles
[6] = concentration 25 μM, relative to 50 μM Trolox, DOPC vesicles, 37° C.
[7] = concentration 125 μM, relative to 50 μM Trolox, DOPC vesicles, 37° C.

Compound | leakage rate constant [1, 4] | leakage rate constant [1, 5] | relative antioxidant capacity [2, 6] | relative antioxidant capacity [2, 7] | antioxidant capacity compared with Trolox at the same concentration [2] | relative antioxidant capacity ([2]; concentration 10 μM, relative to 50 μM Trolox, DOPC vesicles, 37° C.) | relative antioxidant capacity ([2]; concentration 50 μM, reference arbitrarily assigned 1.0) | oxidation protection of DOPC vesicles (C11-Bodipy fluorescence) ([2]; 37° C.) | antioxidant capacity compared with Trolox [3]
O=C(O)CCCC[C@@H](S)CCS (racemic) [DHLA, dihydrolipoic acid] | 1.43 ± 1.25 ms^−1 · 10^3 | 0.48 ± 0.05 * ms^−1 · 10^3 | 1.95 ± 0.03 | 1.12 ± 0.02 | double | – | – | – | –
O=C(O)CCCCC1CCSS1 (stereo not drawn) [ALA, α-Lipoic acid] | 5.19 ± 1.32 * ms^−1 · 10^3 | 3.98 ± 1.69 ms^−1 · 10^3 | 0.61 ± 0.26 | 0.29 ± 0.05 | – | – | – | – | –
Cc1c(C)c2c(c(C)c1O)CCC(C)(C(=O)O)O2 (stereo not shown) [Trolox] | – | – | 0.80 ± 0.09 | 0.80 ± 0.08 | – | 0.98 ± 0.28 | 1.00 | – | –
dihydrolipoyl dioleoylglycerol [LDOG—SH] | 4.90 ± 0.90 * ms^−1 · 10^3 | 1.88 ± 0.01 ms^−1 · 10^3 | 2.46 ± 0.10 | 1.21 ± 0.04 | double | – | – | markedly extended the probe's fluorescent period | –
feruloyl dioleoylglycerol | – | – | – | – | – | – | – | – | slightly less
lipoyl dioleoylglycerol [LDOG—SS—] | 0.43 ± 0.12 * ms^−1 · 10^3 | 0.31 ± 0.06 * ms^−1 · 10^3 | 0.09 ± 0.01 | 0.02 ± 0.002 | – | – | – | afforded little oxidation protection | –
